Like-named read-outs stand apart in the source and are kept apart here.
Tests used:
[1] = biological target: T1, cone CNG channel (CNGA3/CNGB3) (Homo sapiens, UniProt Q16281+Q9NQW8); assay: inside-out patch clamp, Xenopus oocytes, Hill fit; assay type: cell-based
T1 construct: heterotetramer 3 CNGA3 : 1 CNGB3; subunits in pGEMHE, cRNA ratio 1:2.5, expressed in Xenopus laevis oocytes; inside-out patches
T1 sequence (Q16281 1-694): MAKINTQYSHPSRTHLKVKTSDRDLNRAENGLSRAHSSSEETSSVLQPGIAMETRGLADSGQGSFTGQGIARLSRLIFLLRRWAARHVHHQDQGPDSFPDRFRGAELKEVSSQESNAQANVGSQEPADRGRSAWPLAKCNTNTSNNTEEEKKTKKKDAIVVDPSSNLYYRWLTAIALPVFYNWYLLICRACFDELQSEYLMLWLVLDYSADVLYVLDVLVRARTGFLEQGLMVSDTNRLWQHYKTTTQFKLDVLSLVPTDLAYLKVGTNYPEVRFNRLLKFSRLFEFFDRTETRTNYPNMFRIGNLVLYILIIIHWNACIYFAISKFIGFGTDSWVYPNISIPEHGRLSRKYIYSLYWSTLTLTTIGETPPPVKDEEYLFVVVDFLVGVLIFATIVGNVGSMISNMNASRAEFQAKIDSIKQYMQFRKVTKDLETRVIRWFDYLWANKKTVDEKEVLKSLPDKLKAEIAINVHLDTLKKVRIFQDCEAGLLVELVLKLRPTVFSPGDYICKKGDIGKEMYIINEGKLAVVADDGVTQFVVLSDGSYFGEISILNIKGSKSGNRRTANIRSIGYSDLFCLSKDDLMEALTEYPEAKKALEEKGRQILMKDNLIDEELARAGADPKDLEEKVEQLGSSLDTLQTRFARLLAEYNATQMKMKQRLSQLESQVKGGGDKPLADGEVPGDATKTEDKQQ
T1 sequence (Q9NQW8 1-809): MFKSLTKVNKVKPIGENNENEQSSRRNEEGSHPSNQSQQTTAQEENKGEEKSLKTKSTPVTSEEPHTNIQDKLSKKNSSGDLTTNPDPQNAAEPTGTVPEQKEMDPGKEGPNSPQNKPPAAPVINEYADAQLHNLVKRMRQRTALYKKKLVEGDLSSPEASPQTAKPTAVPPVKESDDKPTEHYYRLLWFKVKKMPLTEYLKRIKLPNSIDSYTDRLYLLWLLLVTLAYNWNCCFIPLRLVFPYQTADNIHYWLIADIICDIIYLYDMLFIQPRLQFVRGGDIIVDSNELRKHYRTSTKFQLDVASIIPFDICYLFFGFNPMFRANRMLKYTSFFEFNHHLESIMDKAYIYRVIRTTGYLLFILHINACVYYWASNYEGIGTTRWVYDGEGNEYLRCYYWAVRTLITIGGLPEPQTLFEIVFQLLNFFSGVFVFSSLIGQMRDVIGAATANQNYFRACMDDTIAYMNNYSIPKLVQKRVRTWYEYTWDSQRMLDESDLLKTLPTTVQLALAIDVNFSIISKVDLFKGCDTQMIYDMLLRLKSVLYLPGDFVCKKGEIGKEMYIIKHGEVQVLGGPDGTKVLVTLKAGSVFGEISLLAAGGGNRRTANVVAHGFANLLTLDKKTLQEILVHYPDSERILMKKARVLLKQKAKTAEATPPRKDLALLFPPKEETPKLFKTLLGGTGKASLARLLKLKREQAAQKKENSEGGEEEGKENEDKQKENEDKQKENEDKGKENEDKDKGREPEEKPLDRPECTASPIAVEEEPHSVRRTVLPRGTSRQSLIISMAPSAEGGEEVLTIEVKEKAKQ

[2] = biological target: T2, rod CNG channel (CNGA1/CNGB1a) (Bos taurus, UniProt Q00194+Q28181); assay: inside-out patch clamp, Xenopus oocytes, Hill fit; assay type: cell-based
T2 construct: heterotetramer 3 CNGA1 : 1 CNGB1a; subunits in pGEMHE, cRNA ratio 1:4, expressed in Xenopus laevis oocytes; inside-out patches
T2 sequence (Q00194 whole entry): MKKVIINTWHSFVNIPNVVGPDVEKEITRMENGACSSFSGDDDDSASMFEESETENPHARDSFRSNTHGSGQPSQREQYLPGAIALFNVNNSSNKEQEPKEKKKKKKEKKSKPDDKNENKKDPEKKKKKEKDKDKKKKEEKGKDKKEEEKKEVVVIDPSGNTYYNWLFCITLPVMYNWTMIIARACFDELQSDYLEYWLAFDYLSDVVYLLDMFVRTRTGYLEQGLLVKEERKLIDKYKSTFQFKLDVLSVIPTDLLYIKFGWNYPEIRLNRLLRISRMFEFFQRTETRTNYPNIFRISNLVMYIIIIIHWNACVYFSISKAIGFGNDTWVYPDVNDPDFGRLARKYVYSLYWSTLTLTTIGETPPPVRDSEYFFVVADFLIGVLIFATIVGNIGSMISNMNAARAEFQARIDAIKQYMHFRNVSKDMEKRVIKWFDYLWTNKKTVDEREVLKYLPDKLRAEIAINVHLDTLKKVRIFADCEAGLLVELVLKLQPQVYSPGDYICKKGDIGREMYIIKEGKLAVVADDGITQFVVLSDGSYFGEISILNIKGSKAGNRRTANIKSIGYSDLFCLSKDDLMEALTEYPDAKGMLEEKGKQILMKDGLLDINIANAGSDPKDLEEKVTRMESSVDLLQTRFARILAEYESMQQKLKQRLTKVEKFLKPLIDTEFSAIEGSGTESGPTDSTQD
T2 sequence (Q28181 whole entry): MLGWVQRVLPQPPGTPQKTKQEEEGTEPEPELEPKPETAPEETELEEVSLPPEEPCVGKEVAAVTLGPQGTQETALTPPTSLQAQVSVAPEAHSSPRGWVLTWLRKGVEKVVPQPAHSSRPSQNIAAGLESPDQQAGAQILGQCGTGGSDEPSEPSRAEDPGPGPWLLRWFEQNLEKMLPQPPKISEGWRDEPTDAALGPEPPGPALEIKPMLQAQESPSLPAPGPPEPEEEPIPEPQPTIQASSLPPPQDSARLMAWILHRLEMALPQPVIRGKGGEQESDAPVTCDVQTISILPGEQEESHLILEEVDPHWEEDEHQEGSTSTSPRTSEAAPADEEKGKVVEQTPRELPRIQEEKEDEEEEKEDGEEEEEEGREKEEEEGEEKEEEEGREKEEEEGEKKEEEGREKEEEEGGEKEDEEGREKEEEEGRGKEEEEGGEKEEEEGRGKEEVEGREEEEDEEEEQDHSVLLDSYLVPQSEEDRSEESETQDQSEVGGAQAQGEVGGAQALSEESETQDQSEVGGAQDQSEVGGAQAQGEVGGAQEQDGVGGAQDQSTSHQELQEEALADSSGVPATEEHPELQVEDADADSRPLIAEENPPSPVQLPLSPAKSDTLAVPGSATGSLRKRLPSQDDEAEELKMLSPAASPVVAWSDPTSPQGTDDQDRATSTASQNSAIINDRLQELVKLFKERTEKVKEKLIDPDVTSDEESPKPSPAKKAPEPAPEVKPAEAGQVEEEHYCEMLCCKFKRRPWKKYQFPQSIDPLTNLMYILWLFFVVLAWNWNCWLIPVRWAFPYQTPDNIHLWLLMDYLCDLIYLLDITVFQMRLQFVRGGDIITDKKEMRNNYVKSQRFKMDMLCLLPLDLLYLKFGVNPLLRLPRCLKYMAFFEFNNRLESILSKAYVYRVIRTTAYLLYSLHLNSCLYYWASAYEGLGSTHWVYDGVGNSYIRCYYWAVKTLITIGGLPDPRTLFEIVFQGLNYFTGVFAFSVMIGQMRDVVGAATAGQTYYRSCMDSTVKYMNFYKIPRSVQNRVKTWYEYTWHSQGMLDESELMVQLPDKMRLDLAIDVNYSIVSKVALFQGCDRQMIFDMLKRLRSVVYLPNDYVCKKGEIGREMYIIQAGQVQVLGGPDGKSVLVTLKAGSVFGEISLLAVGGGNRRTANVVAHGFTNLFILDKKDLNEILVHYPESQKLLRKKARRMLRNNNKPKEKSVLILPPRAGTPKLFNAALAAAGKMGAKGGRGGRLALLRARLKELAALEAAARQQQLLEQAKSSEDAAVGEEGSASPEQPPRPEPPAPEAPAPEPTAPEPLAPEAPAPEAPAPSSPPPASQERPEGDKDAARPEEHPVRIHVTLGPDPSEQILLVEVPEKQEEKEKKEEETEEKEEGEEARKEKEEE

[3] = biological target: T2, rod CNG channel (CNGA1/CNGB1a); assay: inside-out patch clamp, Xenopus oocytes, current relative to saturating cGMP; assay type: biochemical; conditions: partial agonist; up to 5 mM analogue vs 3 mM cGMP, pH 7.4, room temperature
[4] = biological target: T1, cone CNG channel (CNGA3/CNGB3); assay: as above; assay type: biochemical; conditions: partial agonist; saturating analogue vs 1 mM cGMP, pH 7.4, room temperature

Nc1nc2c(ncn2[C@@H]2O[C@@H]3COP(=O)(O)O[C@H]3[C@H]2O)c(=O)[nH]1 [cGMP] showed an EC50 [1] of 18.7 µM.

For Nc1nc2c(nc(Br)n2[C@@H]2O[C@@H]3COP(=O)(O)O[C@H]3[C@H]2O)c(=O)[nH]1 [compound 1, 8-Br-cGMP], the EC50 ([1]; channel activation (agonist), +100 mV, pH 7.4, room temperature) was 1.04 µM and the EC50 [2] was 6.18 µM.

Nc1nc(=O)c2nc(Sc3ccc(Cl)cc3)n([C@@H]3O[C@@H]4COP(=O)(O)O[C@H]4[C@H]3O)c2[nH]1 [compound 2, 8-pCPT-cGMP] showed an EC50 [1] of 0.09 µM and an EC50 [2] of 0.77 µM.

O=c1c2ncn([C@@H]3O[C@@H]4COP(=O)(O)O[C@H]4[C@H]3O)c2nc2[nH]c(-c3ccccc3)cn12 [compound 3, PET-cGMP] was tested, and the “% activation relative to cGMP” value [3] was ~ 41.2% and the “% activation relative to cGMP” value [4] was “PET-cGMP, Rp-cGMPS, Sp-cGMPS, and Sp-8-pCPT-cGMPS, was only partially effective when activating cone CNG channels”.

Nc1nc2c(ncn2[C@@H]2O[C@@H]3COP(O)(=S)O[C@H]3[C@H]2O)c(=O)[nH]1 (stereo partly shown) [compound 4, Rp-cGMPS] was tested, and the “% activation relative to cGMP” value [3] was ~ 11% and the “% activation relative to cGMP” value [4] was ~ 43.6%.

Nc1nc2c(ncn2[C@@H]2O[C@@H]3CO[P@](O)(=S)O[C@H]3[C@H]2O)c(=O)[nH]1 [compound 5, Sp-cGMPS] was tested, and the EC50 [1] was 2.88 µM and the “% activation relative to cGMP” value [3] was ~ 62.8%.

Molecule Nc1nc2c(nc(Sc3ccc(Cl)cc3)n2[C@@H]2O[C@@H]3CO[P@](O)(=S)O[C@H]3[C@H]2O)c(=O)[nH]1 [compound 7, Sp-8-pCPT-cGMPS] has an EC50 [1] of 131 µM and an EC50 [2] of 42.8 µM.

Reference: paper PMC11027099 (ACS Chemical Neuroscience, 2024)
